Data set [1] is described as follows: Clearance in human liver microsomes at 1 uM after 20 mins in presence of NADPH. Format: ADME. Background: Liver microsomes are vesicles of endoplasmic reticulum, rich in cytochrome P450 enzymes.
The test system of data set [2] is MDR1 (human). In words: Apparent permeability of the compound across pig LLC-PK1 cells expressing human MDR1. Type of data set: ADME, cell-based, Sus scrofa.

Each structure is given as a SMILES string.

The term Papp denotes the rate of passage across a membrane or cell layer, normalised by area and donor concentration. Regarding `NC1=N[C@@]2(CO1)c1cc(-c3cncc(Cl)c3)ccc1O[C@H]1COCC[C@@H]12`, in data set [1], the CLhep predicted at 1 µM was 15 mL/min/kg. The apparent permeability coefficient (Papp) in data set [2] was determined as 4.7 ×10⁻⁶ cm/s.

As to `NC1=N[C@@]2(CO1)c1cc(-c3cccnc3F)ccc1O[C@@H]1COCC[C@H]12`, the CLhep predicted at 1 µM in data set [1] was 6 mL/min/kg. In addition, in data set [2], the Papp came to 10 ×10⁻⁶ cm/s.

Take `N#Cc1cccc(-c2ccc3c(c2)[C@@]2(COC(N)=N2)[C@@H]2CCOC[C@H]2O3)c1`: the CLhep predicted at 1 µM in data set [1] is 8 mL/min/kg. Besides, the Papp in data set [2] amounted to 11 ×10⁻⁶ cm/s.

On to `C[C@]12COCC[C@@H]1[C@]1(COC(N)=N1)c1cc(-c3cncc(Cl)c3)ccc1O2` (racemic), for which the CLhep predicted at 1 µM in data set [1] was 15 mL/min/kg. Besides, the apparent permeability coefficient (Papp) in data set [2] stood at 10 ×10⁻⁶ cm/s.

For `NC1=N[C@@]2(CO1)c1cc(-c3cncc(F)c3)ccc1O[C@@H]1COCC[C@H]12`, in data set [1], the CLhep predicted at 1 µM was 9 mL/min/kg. Moreover, the Papp in data set [2] is 15 ×10⁻⁶ cm/s.

As for `NC1=N[C@@]2(CO1)c1cc(-c3cncc(Cl)c3)ccc1O[C@@H]1COCC[C@H]12`, the CLhep predicted at 1 µM in data set [1] is 13 mL/min/kg. Besides, in data set [2], the apparent permeability coefficient (Papp) is 14 ×10⁻⁶ cm/s.

Consider `NC1=N[C@@]2(CO1)c1cc(-c3cc(F)cc(Cl)c3)ccc1O[C@@H]1COCC[C@H]12`, for which, in data set [1], the CLhep predicted at 1 µM was 10 mL/min/kg. Also, the Papp in data set [2] was determined as 11 ×10⁻⁶ cm/s.
